Data: ChEMBL document CHEMBL1149917, “Peptidomimetic growth hormone secretagogues: synthesis and biological activities of analogs varied at the indole nucleus of the prototypical spiropiperidine L-162,752” (Bioorg Med Chem Lett, 1996)

Species: Rattus norvegicus
Experiment: Compound was tested for intrinsic growth hormone(GH) secretory potency in the rat pituitary cell assay
Format: functional
Conditions: Pituitary gland cell

Compound	EC50
CC(C)(N)CC(=O)N[C@H](COCc1ccccc1)C(=O)N1CCC2(CCc3ccccc32)CC1	> 1000 nM
CC(C)(N)C(=O)N[C@H](Cc1ccccc1)C(=O)N1CCC2(CCc3ccccc32)CC1	250 nM
CC(C)(N)C(=O)N[C@H](Cc1cccc2ccccc12)C(=O)N1CCC2(CCc3ccccc32)CC1	1100 nM
C[C@@H](O)CNC(C)(C)CC(=O)N[C@H](COCc1ccccc1)C(=O)N1CCC2(CCc3ccccc32)CC1	240 nM
CC(C)(N)C(=O)N[C@H](Cc1ccc2ccccc2c1)C(=O)N1CCC2(CCc3ccccc32)CC1	900 nM
C[C@@H](O)CNC(C)(C)CC(=O)N[C@H](CCc1ccccc1)C(=O)N1CCC2(CCc3ccccc32)CC1	200 nM
CC(C)(N)CC(=O)N[C@H](CCc1ccccc1)C(=O)N1CCC2(CCc3ccccc32)CC1	> 1000 nM
CC(C)(N)C(=O)N[C@H](CSCc1ccccc1)C(=O)N1CCC2(CCc3ccccc32)CC1	65 nM
CC(C)(CC(=O)N[C@H](CCc1ccccc1)C(=O)N1CCC2(CCc3ccccc32)CC1)NC[C@H](O)CO	170 nM
CC(C)(N)C(=O)N[C@H](Cc1csc2ccccc12)C(=O)N1CCC2(CCc3ccccc32)CC1	490 nM
